The text below walks through data of patent US20030130336A1, “Method of determining the activity of a central nervous system drug on striatal dopamine transporter populations” (Pfizer Inc., priority 2002, published 2003).

Counter-ions that a name gives are not always drawn.

The target in the assay is T1, dopamine transporters (DAT) in the striatal nuclei (Homo sapiens, UniProt Q01959).
T1 construct: from tissue; host or cells: striatum (caudate and putamen) of living volunteers, imaged in vivo by SPECT
T1 sequence (Q01959 whole entry): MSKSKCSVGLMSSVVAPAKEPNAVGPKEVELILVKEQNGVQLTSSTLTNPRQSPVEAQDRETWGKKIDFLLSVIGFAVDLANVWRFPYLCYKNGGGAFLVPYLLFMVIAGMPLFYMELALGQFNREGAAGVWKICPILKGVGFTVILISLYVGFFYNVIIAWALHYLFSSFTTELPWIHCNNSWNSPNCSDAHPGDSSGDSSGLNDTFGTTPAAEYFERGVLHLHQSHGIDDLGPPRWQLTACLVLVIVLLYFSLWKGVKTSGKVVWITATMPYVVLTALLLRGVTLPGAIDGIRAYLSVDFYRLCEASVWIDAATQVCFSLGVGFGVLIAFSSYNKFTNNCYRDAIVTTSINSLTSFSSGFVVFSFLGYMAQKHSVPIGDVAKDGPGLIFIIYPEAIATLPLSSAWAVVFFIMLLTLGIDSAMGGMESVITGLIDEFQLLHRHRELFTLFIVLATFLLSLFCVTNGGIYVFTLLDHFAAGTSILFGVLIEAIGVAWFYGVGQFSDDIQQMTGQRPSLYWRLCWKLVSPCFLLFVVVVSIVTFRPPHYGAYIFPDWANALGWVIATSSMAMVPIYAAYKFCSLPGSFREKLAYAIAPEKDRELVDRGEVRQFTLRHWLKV
Briefly: [123I]β-CIT SPECT imaging of striatal DAT binding (V3″ ratio). Format: in vivo.

`CC(NC(C)(C)C)C(=O)c1cccc(Cl)c1` (stereo not drawn) [bupropion hydrochloride]: the “St-V3″ (Mean ± SD), Scan 2” value (striatum, specific to non-specific [123I]β-CIT binding, Day 8, Group 1 bupropion HCl SR 100 mg po qAM, Group 2 citalopram 20 mg po BID, days 1-8, healthy volunteers) is listed as 7.42 ± 1.13. Moreover, the “St-V3″ (Mean ± SD), Scan 3” value (striatum, Day 16, Group 1 bupropion HCl SR 100 mg po BID days 9-16, Group 2 citalopram 20 mg po BID plus bupropion HCl SR 100 mg qAM days 9-16) turned out to be 7.37 ± 1.69. In addition, the “change in striatal DAT binding” value (versus baseline Scan 1, RMANOVA, paired t-test with Bonferroni correction) is reported as “did not lead to any significant changes”.
